Experimental data: publication PMC10265666, “Lung SPLUNC1 Peptide Derivatives in the Lipid Membrane Headgroup Kill Gram-Negative Planktonic and Biofilm Bacteria” (Biomacromolecules, 2023)
Several values for one entry are separate records, joined by “and”; a condition that tells them apart may be missing. Equal values may be shown once. Positions of bridges follow the written chain, without caps; N, C: chain ends. Non-standard residues stand in square brackets, D forms with d. Residues, ends and D or L forms follow the SMILES beside them. *: point of attachment. X1 = CC[C@H](C)CCCCC(=O)*; Dab = NCC[C@H](N)C(=O)O

What was measured:
[1] = tested on: Klebsiella pneumoniae, 24 clinical isolates and 1 lab strain; assay type: cell-based; conditions: for antibacterial efficacy: tested G(−) bacteria (K. pneumoniae)
Description: Minimum inhibitory concentration (MIC, defined as the minimum AMP concentration to prevent bacterial growth) and biofilm data were obtained by UV–vis spectroscopy using a BioTek Epoch 2 microplate reader.
K. pneumoniae substrains were grown overnight using 50 mL plastic conical tubes on a shaker platform at 37 °C. The following day, serial dilutions of the four SPLUNC1 peptides and LL-37 were tested against these 25 substrains of K. pneumoniae using a 96-well plate. […] Following the addition of the peptides at the tested concentrations from serial dilutions to the K. pneumoniae substrains, the plates were incubated at 37 °C for 16 h. Then, visible spectroscopy at λ = 570 nm was performed to determine the bacterial absorption in each well. Those wells with an optical density reading above a threshold value were deemed resistant to the peptide, while those that were below the threshold value were deemed sensitive to the peptide. The threshold value was determined using Gen5 software with the Di lab Growth Inhibition Assay protocol.
Average MICs and standard deviations were calculated by first averaging the absorbances as a function of AMP concentration in all of the bacterial strains from four total data sets. Then, the average MICs were determined from the averaged absorbances. The standard deviations of the MICs were calculated from each of the absorbances that were used to calculate the average. Then, the standard deviations were averaged across substrains for the graph. These procedures were used to obtain an average MIC with standard deviation across all 25 substrains for one peptide, in order to compare peptide efficacy. Typically, many more substrains are used to obtain an average MIC, so this average MIC may change if thousands of substrains are compared.

[2] = Circular dichroism secondary structure in G(−)IM ULVs; assay type: physicochemical; conditions: 10 μM peptide, 15 mM PBS pH 7, 37 °C
Description: Unilamellar vesicles (ULVs) of ∼600 Å diameter were prepared using an Avanti extruder: 200 μL of 20 mg/ml G(−)IM lipid in 15 mM PBS was extruded 21 times through Nucleopore filters of size 500 Å using 0.2 mL Hamilton syringes in the Avanti extruder. The final concentration of G(−)IM lipid in the ULVs was determined gravimetrically to be 15 mg/ml. Concentrated ULVs were added to 3 mL of 10 μM peptide in 15 mM PBS at pH 7 to create lipid/peptide molar ratios between 0:1 and 70:1. The samples remained at room temperature for ∼16 h before the CD measurement. Data were collected in 3 mL quartz cuvettes using a Jasco 1500 CD spectrophotometer at 37 °C in the Center for Nucleic Acids Science and Technology at Carnegie Mellon University. The samples were scanned from 200 to 240 nm 20 times, and the ellipticity (ϵ) results were averaged. Temperature was controlled at 37 °C via a Peltier element and water circulation through the sample compartment. Nitrogen gas was used at a flow rate between 20 and 25 ft^3/h (CFH). The parameters for scanning were: speed 100 nm/min, step size 1.0 nm, response time 1 second, bandwidth 1 nm, and sensitivity of 20 mdeg. OriginPro 2019 (OriginLab, Northampton, MA) was used to carry out a linear least-squares fit of the smoothed ellipticity traces to four secondary structural motifs representing α-helix, β-sheet, β-turn, and random coil.[20] This analysis gives a percentage match of each of the secondary structural motifs to the total sample ellipticity. Data were finally converted to mean residue ellipticity, taking into account the peptide concentration (10 μMolar) and number of amino acids (N), using the equation: MRE = (10^4/N)ϵ deg cm^2/dmol.

[3] = Circular dichroism secondary structure in Euk33 ULVs; assay type: physicochemical; conditions: 10 μM peptide, 15 mM PBS pH 7, 37 °C
[4] = tested on: eukaryotic cells vs bacteria; experiment: Therapeutic index (eukaryotic cell kill concentration / bacterial kill concentration); assay type: cell-based
Description: But more important than cytotoxicity is the therapeutic index (TI), which is the concentration at which ≥90% of eukaryotic cells are killed divided by the concentration at which ≥90% of bacteria are killed. For A4-153, this TI value is an estimated ≈ 128 μM/16 μM ≈ 8. TI for A4-157 is an estimated 128 μM/24 μM ≈ 5, and the TI for A4-183 is an estimated 64 μM/20 μM ≈ 3.

[5] = G(−)IM/peptide molar ratio 10:1
[6] = G(−)IM/peptide molar ratio 15:1
[7] = G(−)IM/peptide molar ratio 20:1
[8] = G(−)IM/peptide molar ratio 25:1
[9] = G(−)IM/peptide molar ratio 30:1
[10] = G(−)IM/peptide molar ratio 40:1
[11] = G(−)IM/peptide molar ratio 50:1
[12] = G(−)IM/peptide molar ratio 70:1

CC[C@H](C)CCCCC(=O)N[C@@H](CCN)C(=O)N[C@H](C(=O)N[C@@H](CCN)C(=O)N[C@H]1CCNC(=O)[C@H]([C@@H](C)O)NC(=O)[C@H](CCN)NC(=O)[C@H](CCN)NC(=O)[C@H](CC(C)C)NC(=O)[C@@H](CC(C)C)NC(=O)[C@H](CCN)NC1=O)[C@@H](C)O [colistin, reference compound] (X1-[Dab]T[Dab][Dab][Dab][dL]L[Dab][Dab]T; lactam 4-C (inferred); N-terminus assumed)
average MIC, colistin-susceptible substrains only ([1]; 13 colistin-susceptible K. pneumoniae substrains): 0.88 µM
MIC in the colistin-sensitive substrains ([1]; colistin-sensitive K. pneumoniae substrains): < 2 µM

CC(C)[C@H](NC(=O)CNC(=O)CNC(=O)[C@@H](NC(=O)[C@H](Cc1c[nH]c2ccccc12)NC(=O)CNC(=O)[C@H](CCCCN)NC(=O)[C@@H](NC(=O)[C@H](CCCCN)NC(=O)[C@H](CCCCN)NC(=O)[C@H](Cc1ccccc1)NC(=O)[C@H](Cc1ccccc1)NC(=O)[C@H](CCCCN)NC(=O)[C@H](CCCCN)NC(=O)[C@@H](N)Cc1ccccc1)C(C)C)C(C)C)C(=O)N[C@@H](Cc1c[nH]c2ccccc12)C(=O)NCC(=O)N[C@@H](CCCCN)C(=O)N[C@H](C(=O)N[C@@H](CCCCN)C(=O)N[C@@H](CO)C(=O)N[C@H](C(=O)N[C@H](C(=O)N[C@@H](CCCCN)C(=O)O)C(C)C)C(C)C)C(C)C (stereo in doubt) [A4-157]
Random ([2]; G(−)IM/peptide molar ratio 0:1): 61.7%
α-helix ([2]; G(−)IM/peptide molar ratio 0:1): 4.57%
β-sheet ([2]; G(−)IM/peptide molar ratio 0:1): 33.6%
β-turn ([2]; G(−)IM/peptide molar ratio 0:1): 0%
Random ([2]; G(−)IM/peptide molar ratio 1:1): 61.7%
α-helix ([2]; G(−)IM/peptide molar ratio 1:1): 6.9%
β-sheet ([2]; G(−)IM/peptide molar ratio 1:1): 31.4%
β-turn ([2]; G(−)IM/peptide molar ratio 1:1): 0%
Random ([2]; G(−)IM/peptide molar ratio 5:1): 59.5%
α-helix ([2]; G(−)IM/peptide molar ratio 5:1): 15.1%
β-sheet ([2]; G(−)IM/peptide molar ratio 5:1): 25.4%
β-turn ([2]; G(−)IM/peptide molar ratio 5:1): 0%
Random [2, 5]: 52.6%
α-helix [2, 5]: 19.0%
β-sheet [2, 5]: 28.3%
β-turn [2, 5]: 0.1%
Random [2, 6]: 20.1%
α-helix [2, 6]: 46.0%
β-sheet [2, 6]: 33.9%
β-turn [2, 6]: 0%
Random [2, 7]: 26.5%
α-helix [2, 7]: 49.3%
β-sheet [2, 7]: 24.2%
β-turn [2, 7]: 0%
Random [2, 8]: 8.3%
α-helix [2, 8]: 61.0%
β-sheet [2, 8]: 28.5%
β-turn [2, 8]: 2.2%
Random [2, 9]: 8.1%
α-helix [2, 9]: 62.1% and 62%
β-sheet [2, 9]: 28.7%
β-turn [2, 9]: 1.1%
Random [2, 10]: 0%
α-helix [2, 10]: 59.5%
β-sheet [2, 10]: 40.5%
β-turn [2, 10]: 0%
Random [2, 11]: 1.0%
α-helix [2, 11]: 56.4%
β-sheet [2, 11]: 33.6%
β-turn [2, 11]: 0%
Random [2, 12]: 13.2%
α-helix [2, 12]: 51.2%
β-sheet [2, 12]: 35.6%
β-turn [2, 12]: 0%
Random ([3]; Euk33/peptide molar ratio 0:1): 61.7%
α-helix ([3]; Euk33/peptide molar ratio 0:1): 4.57%
β-sheet ([3]; Euk33/peptide molar ratio 0:1): 33.6%
β-turn ([3]; Euk33/peptide molar ratio 0:1): 0%
Random ([3]; Euk33/peptide molar ratio 5:1): 64.2%
α-helix ([3]; Euk33/peptide molar ratio 5:1): 3.3%
β-sheet ([3]; Euk33/peptide molar ratio 5:1): 32.5%
β-turn ([3]; Euk33/peptide molar ratio 5:1): 0%
Random ([3]; Euk33/peptide molar ratio 10:1): 64.4%
α-helix ([3]; Euk33/peptide molar ratio 10:1): 7.3%
β-sheet ([3]; Euk33/peptide molar ratio 10:1): 28.3%
β-turn ([3]; Euk33/peptide molar ratio 10:1): 0%
Random ([3]; Euk33/peptide molar ratio 30:1): 59.1%
α-helix ([3]; Euk33/peptide molar ratio 30:1): 10%
β-sheet ([3]; Euk33/peptide molar ratio 30:1): 30.9%
β-turn ([3]; Euk33/peptide molar ratio 30:1): 0%
Random ([3]; Euk33/peptide molar ratio 70:1): 42.5%
α-helix ([3]; Euk33/peptide molar ratio 70:1): 7.4%
β-sheet ([3]; Euk33/peptide molar ratio 70:1): 50.1%
β-turn ([3]; Euk33/peptide molar ratio 70:1): 0%
concentration at which ≥90% of bacteria are killed ([4]; denominator of TI): 24 µM
concentration at which ≥90% of eukaryotic cells are killed (estimated) ([4]; numerator of TI): ≈ 128 μM

GVKKKWKKKLGLTLWLKISGVV [A4-198, version scrambled to α-helical content, with a similar hydrophobicity as A4-153]
average MIC value ([1]; average over 25 K. pneumoniae substrains, 37 °C, 16 h, OD 570 nm, growth at 32 μM counted as 64 μM): highest MIC value
antibacterial efficacy [1]: ineffective
Random ([2]; G(−)IM/peptide molar ratio 0:1): 35.9%
α-helix ([2]; G(−)IM/peptide molar ratio 0:1): 2.9%
β-sheet ([2]; G(−)IM/peptide molar ratio 0:1): 56.7%
β-turn ([2]; G(−)IM/peptide molar ratio 0:1): 4.5%
Random ([2]; G(−)IM/peptide molar ratio 1:1): 32.7%
α-helix ([2]; G(−)IM/peptide molar ratio 1:1): 2.6%
β-sheet ([2]; G(−)IM/peptide molar ratio 1:1): 55.9%
β-turn ([2]; G(−)IM/peptide molar ratio 1:1): 8.8%
Random ([2]; G(−)IM/peptide molar ratio 5:1): 41.0%
α-helix ([2]; G(−)IM/peptide molar ratio 5:1): 22.0%
β-sheet ([2]; G(−)IM/peptide molar ratio 5:1): 24.4%
β-turn ([2]; G(−)IM/peptide molar ratio 5:1): 12.6%
Random [2, 5]: 42.11%
α-helix [2, 5]: 15.5%
β-sheet [2, 5]: 32.0%
β-turn [2, 5]: 10.4%
Random [2, 6]: 12.1%
α-helix [2, 6]: 9.1%
β-sheet [2, 6]: 48.1%
β-turn [2, 6]: 30.7%
Random [2, 7]: 30.7%
α-helix [2, 7]: 4.6%
β-sheet [2, 7]: 44.5%
β-turn [2, 7]: 20.2%
Random [2, 9]: 34.9%
α-helix [2, 9]: 0.2%
β-sheet [2, 9]: 44.5%
β-turn [2, 9]: 20.4%
Random [2, 11]: 37.6%
α-helix [2, 11]: 0.2%
β-sheet [2, 11]: 46.4%
β-turn [2, 11]: 15.8%
Random [2, 12]: 37.1%
α-helix [2, 12]: 2.0%
β-sheet [2, 12]: 46.2%
β-turn [2, 12]: 14.7%
Random ([3]; Euk33/peptide molar ratio 0:1): 35.9%
α-helix ([3]; Euk33/peptide molar ratio 0:1): 2.9%
β-sheet ([3]; Euk33/peptide molar ratio 0:1): 56.7%
β-turn ([3]; Euk33/peptide molar ratio 0:1): 4.5%
Random ([3]; Euk33/peptide molar ratio 5:1): 34.7%
α-helix ([3]; Euk33/peptide molar ratio 5:1): 5.7%
β-sheet ([3]; Euk33/peptide molar ratio 5:1): 53.6%
β-turn ([3]; Euk33/peptide molar ratio 5:1): 6.0%
Random ([3]; Euk33/peptide molar ratio 10:1): 37.0%
α-helix ([3]; Euk33/peptide molar ratio 10:1): 5.9%
β-sheet ([3]; Euk33/peptide molar ratio 10:1): 51.9%
β-turn ([3]; Euk33/peptide molar ratio 10:1): 5.2%
Random ([3]; Euk33/peptide molar ratio 30:1): 38.7%
α-helix ([3]; Euk33/peptide molar ratio 30:1): 6.2% and 6%
β-sheet ([3]; Euk33/peptide molar ratio 30:1): 49.4%
β-turn ([3]; Euk33/peptide molar ratio 30:1): 5.7%
Random ([3]; Euk33/peptide molar ratio 70:1): 41.8%
α-helix ([3]; Euk33/peptide molar ratio 70:1): 10.3%
β-sheet ([3]; Euk33/peptide molar ratio 70:1): 47.9%
β-turn ([3]; Euk33/peptide molar ratio 70:1): 0%

LL-37: the human cathelicidin, natural AMP control [reference compound]
antibacterial efficacy [1]: ineffective
